# Legend:
# human CSNK1D = target: T1, human CSNK1D (Homo sapiens, UniProt P48730); test: Whole Cell nBRET CSNK1D Binding Assay; conditions: living CHO cells stably expressing human CSNK1D tagged with nanoluciferase; NanoBret tracer 130 nM; 2 hours at 37 C
# T1 construct: expressed in transfected cells
# [1] = target: T2, human recombinant GST cleaved CSNK1D (Homo sapiens, UniProt P48730); test: Purified Enzyme Assay (ADP-Glo CSNK1D Kinase Assay); type: biochemical; conditions: 2 nM CSNK1D; peptide substrate 150 μM; ATP 20 μM; 45 minutes at room temperature
# T2 construct: GST (cleaved yes); purchased University of Dundee clone DU 19064
# How it was run: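 GST-cleaved human recombinant CSNK1D phosphorylates peptide PLSRTL-pS-VASLPGL with ATP; compounds added in dose-response, 45 min at room temperature. ADP formed measured by ADP-Glo luminescence and converted to percent activity.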
# T2 sequence (P48730 whole entry): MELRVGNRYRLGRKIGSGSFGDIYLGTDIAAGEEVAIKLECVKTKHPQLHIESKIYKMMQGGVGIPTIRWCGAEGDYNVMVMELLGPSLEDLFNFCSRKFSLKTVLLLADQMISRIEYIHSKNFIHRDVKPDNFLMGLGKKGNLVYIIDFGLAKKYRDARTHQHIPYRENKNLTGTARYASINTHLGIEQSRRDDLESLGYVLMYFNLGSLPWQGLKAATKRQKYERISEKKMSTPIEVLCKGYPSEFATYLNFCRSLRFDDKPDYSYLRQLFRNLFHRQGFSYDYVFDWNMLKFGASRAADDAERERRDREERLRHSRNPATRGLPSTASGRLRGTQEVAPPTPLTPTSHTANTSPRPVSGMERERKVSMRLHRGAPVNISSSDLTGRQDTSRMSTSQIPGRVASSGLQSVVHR
# T1 sequence (P48730 whole entry): as above
IC50 (human CSNK1D) [nM],IC50 [1] [nM],Structure (SMILES)
34,3,"[2H]C([2H])([2H])OC[C@]1(F)CCc2c(-c3cc(C)nc4[nH]ncc34)c(-c3ccc(F)cn3)nn2C1 (single isomer, unassigned) [Example 310, (*S)-4-(6-Fluoro-2-(5-fluoropyridin-2-yl)-6-((methoxy-d3)methyl)-4,5,6,7-tetrahydropyrazolo[1,5-a]pyridin-3-yl)-6-methyl-1H-pyrazolo[3,4-b]pyridine]"
43,4,"[2H]C([2H])([2H])C1(C([2H])([2H])[2H])Cn2nc(-c3ccc(F)cn3)c(-c3cc(C)nc4[nH]ncc34)c2CO1 [Example 401, 2-(5-Fluoropyridin-2-yl)-6,6-bis(methyl-d3)-3-(6-methyl-1H-pyrazolo[3,4-b]pyridin-4-yl)-6,7-dihydro-4H-pyrazolo[5,1-c][1,4]oxazine]"
29,2,"Cc1nc2[nH]ncc2c(-c2c(-c3ccc(F)cn3)nn3c2C[C@@H]2C[C@@H]23)c1F [Example 273, (4aS,5aS)-3-(5-Fluoro-6-methyl-1H-pyrazolo[3,4-b]pyridin-4-yl)-2-(5-fluoropyridin-2-yl)-4,4a,5,5a-tetrahydrocyclopropa[4,5]pyrrolo[1,2-b]pyrazole]"
114,94,"CC1(CF)CCc2c(-c3ccn4nccc4c3)c(-c3ccc(F)cn3)nn2C1 (single isomer, unassigned) [Example 289, (*R)-5-[6-(Fluoromethyl)-2-(5-fluoro-2-pyridyl)-6-methyl-5,7-dihydro-4H-pyrazolo[1,5-a]pyridin-3-yl]pyrazolo[1,5-a]pyridine]"
64,7,"Fc1ccc(-c2nn3c(c2-c2c(F)cnc4[nH]ncc24)CC(F)(F)CC3)cc1 [Example 278, 4-[5,5-Difluoro-2-(4-fluorophenyl)-6,7-dihydro-4H-pyrazolo[1,5-a]pyridin-3-yl]-5-fluoro-1H-pyrazolo[3,4-b]pyridine]"
210,10,"CCC(=O)Nc1cc(-c2c(-c3ccc(F)cn3)nn3c2OCCC3C)ccn1 (stereo not drawn) [Example 445, N-(4-(2-(5-Fluoropyridin-2-yl)-7-methyl-6,7-dihydro-5H-pyrazolo[5,1-b][1,3]oxazin-3-yl)pyridin-2-yl)propionamide]"
55,7,"Cc1cc(-c2c(-c3ccc(F)cn3)nn3c2OC(C)(C)C3)c2cn[nH]c2n1 [Example 368, 6-(5-Fluoro-2-pyridyl)-2,2-dimethyl-7-(6-methyl-1H-pyrazolo[3,4-b]pyridin-4-yl)-3H-pyrazolo[5,1-b]oxazole]"
1040,20,"Cc1cnn2ccc(-c3c(-c4ccc(F)cn4)nn4c3COC(C)(C)C4)cc12 [Example 383, 2-(5-Fluoro-2-pyridyl)-6,6-dimethyl-3-(3-methylpyrazolo[1,5-a]pyridin-5-yl)-4,7-dihydropyrazolo[5,1-c][1,4]oxazine]"
1410,60,"Fc1ccc(-c2nn3c(c2-c2ccnc4[nH]ncc24)C[C@H]2[C@@H](C3)C2(F)F)cc1 (stereo in doubt) [Example 363, (4a*S,5a*S)-5,5-Difluoro-2-(4-fluorophenyl)-3-(1H-pyrazolo[3,4-b]pyridin-4-yl)-4a,5,5a,6-tetrahydro-4H-cyclopropa[d]pyrazolo[1,5-a]pyridine]"
2300,119,"Cc1cnc(N)cc1-c1c(-c2ccc(F)cn2)nn2c1COC(C)(C)C2 [Example 378, 4-(2-(5-Fluoropyridin-2-yl)-6,6-dimethyl-6,7-dihydro-4H-pyrazolo[5,1-c][1,4]oxazin-3-yl)-5-methylpyridin-2-amine]"
26,7,"CC1(C)Cn2nc(-c3ccc(F)cn3)c(-c3c(F)cnc4[nH]nc(Cl)c34)c2CO1 [Example 392, 3-(3-Chloro-5-fluoro-1H-pyrazolo[3,4-b]pyridin-4-yl)-2-(5-fluoropyridin-2-yl)-6,6-dimethyl-6,7-dihydro-4H-pyrazolo[5,1-c][1,4]oxazine]"
1,1,"CCC(=O)Nc1cc(-c2c(-c3ccc(F)cc3)nn3c2OCC2(CC2)C3)ccn1 [Example 455, N-(4-(2′-(4-Fluorophenyl)-5′H,7′H-spiro[cyclopropane-1,6′-pyrazolo[5,1-b][1,3]oxazin]-3′-yl)pyridin-2-yl)propionamide]"

# Further lines, the compound ahead of its results:
Structure (SMILES),IC50 (human CSNK1D) [nM],IC50 [1] [nM]
"[2H]C([2H])([2H])C1(C([2H])([2H])[2H])Cc2c(-c3c(F)c(C)nc4[nH]ncc34)c(-c3ccc(F)cn3)nn2C1 [Example 244, 5-Fluoro-4-[2-(5-fluoro-2-pyridyl)-5,5-bis(methyl-d3)-4,6-dihydropyrrolo[1,2-b]pyrazol-3-yl]-6-methyl-1H-pyrazolo[3,4-b]pyridine]",29,4
"Fc1ccc(-c2nn3c(c2-c2ccnc4[nH]ncc24)CC(F)(F)C3)cc1 [Example 230, 4-[5,5-Difluoro-2-(4-fluorophenyl)-4,6-dihydropyrrolo[1,2-b]pyrazol-3-yl]-1H-pyrazolo[3,4-b]pyridine]",74,5
"Cc1cc(-c2c(-c3ccc(F)cn3)nn3c2C[C@@H]2C[C@@H]23)c2cn[nH]c2n1 [Example 28, (4aS,5aS)-2-(5-Fluoropyridin-2-yl)-3-(6-methyl-1H-pyrazolo[3,4-b]pyridin-4-yl)-4,4a,5,5a-tetrahydrocyclopropa[4,5]pyrrolo[1,2-b]pyrazole]",19,2
"Cc1cc(-c2c(-c3ccc(F)cn3)nn3c2CC[C@H]3C)c2cn[nH]c2n1 [Example 21, 4-[(6R)-2-(5-Fluoro-2-pyridyl)-6-methyl-5,6-dihydro-4H-pyrrolo[1,2-b]pyrazol-3-yl]-6-methyl-1H-pyrazolo[3,4-b]pyridine]",353,14
"Cc1cc(-c2c(-c3ccc(F)cn3)nn3c2COC(C)(C)C3)c2cn[nH]c2n1 [Example 154, 2-(5-Fluoro-2-pyridyl)-6,6-dimethyl-3-(6-methyl-1H-pyrazolo[3,4-b]pyridin-4-yl)-4,7-dihydropyrazolo[5,1-c][1,4]oxazine]",23,2
"Cc1cc(-c2c(-c3ccc(F)cn3)nn3c2CC(F)C3)c2cn[nH]c2n1 (stereo not drawn) [Example 13, 4-(5-Fluoro-2-(5-fluoropyridin-2-yl)-5,6-dihydro-4H-pyrrolo[1,2-b]pyrazol-3-yl)-6-methyl-1H-pyrazolo[3,4-b]pyridine]",671,29
"C[C@@H]1Cn2nc(-c3ccc(F)cc3)c(-c3ccnc4[nH]ncc34)c2CO1 (single isomer, unassigned) [Example 82, (*R)-2-(4-Fluorophenyl)-6-methyl-3-(1H-pyrazolo[3,4-b]pyridin-4-yl)-6,7-dihydro-4H-pyrazolo[5,1-c][1,4]oxazine]",26,2
"CC1(C)Cn2nc(-c3ccc(F)cn3)c(-c3cc(C4CC4)nc4[nH]ncc34)c2CO1 [Example 155, 3-(6-Cyclopropyl-1H-pyrazolo[3,4-b]pyridin-4-yl)-2-(5-fluoropyridin-2-yl)-6,6-dimethyl-6,7-dihydro-4H-pyrazolo[5,1-c][1,4]oxazine]",172,8
"Fc1ccc(-c2nn3c(c2-c2ccnc4[nH]ncc24)OCCC3)cc1 [Example 184, 2-(4-Fluorophenyl)-3-(1H-pyrazolo[3,4-b]pyridin-4-yl)-6,7-dihydro-5H-pyrazolo[5,1-b][1,3]oxazine]",15,2
"CC(C)[C@@H]1Cn2nc(-c3ccc(F)cn3)c(-c3ccnc4[nH]ncc34)c2CO1 (single isomer, unassigned) [Example 97, (*R)-2-(5-Fluoropyridin-2-yl)-6-isopropyl-3-(1H-pyrazolo[3,4-b]pyridin-4-yl)-6,7-dihydro-4H-pyrazolo[5,1-c][1,4]oxazine]",5050,63
"Fc1ccc(-c2nn3c(c2-c2ccnc4[nH]nc(Cl)c24)CC2(C3)CC2(F)F)nc1 (single isomer, unassigned) [Example 256, (*S)-3-(3-Chloro-1H-pyrazolo[3,4-b]pyridin-4-yl)-1′,1′-difluoro-2-(5-fluoro-2-pyridyl)spiro[4,6-dihydropyrrolo[1,2-b]pyrazole-5,2′-cyclopropane]]",117,12
"Fc1cncc(-c2nn3c(c2-c2ccnc4[nH]ncc24)COCC3)c1 [Example 76, 2-(5-Fluoro-3-pyridyl)-3-(1H-pyrazolo[3,4-b]pyridin-4-yl)-6,7-dihydro-4H-pyrazolo[5,1-c][1,4]oxazine]",2930,168
"FCC1Cn2nc(-c3ccc(F)cc3)c(-c3ccnc4[nH]ncc34)c2CO1 (single isomer, unassigned) [Example 105, (*R)-(Fluoromethyl)-2-(4-fluorophenyl)-3-(1H-pyrazolo[3,4-b]pyridin-4-yl)-6,7-dihydro-4H-pyrazolo[5,1-c][1,4]oxazine]",46,4
"CC(C)[C@H]1Cn2nc(-c3ccc(F)cn3)c(-c3ccnc4[nH]ncc34)c2CO1 (single isomer, unassigned) [Example 98, (*S)-2-(5-Fluoropyridin-2-yl)-6-isopropyl-3-(1H-pyrazolo[3,4-b]pyridin-4-yl)-6,7-dihydro-4H-pyrazolo[5,1-c][1,4]oxazine]",2280,31
"C[C@@H]1OCc2c(-c3ccnc4[nH]ncc34)c(-c3ccc(F)cn3)nn2[C@H]1C (stereo in doubt) [Example 119, (6*S,7*S)-2-(5-Fluoropyridin-2-yl)-6,7-dimethyl-3-(1H-pyrazolo[3,4-b]pyridin-4-yl)-6,7-dihydro-4H-pyrazolo[5,1-c][1,4]oxazine]",751,32

# — patent US20230339970A1, “CASEIN KINASE 1 DELTA MODULATORS” (priority 2020, published 2023)
